The EC50 is the concentration that produces a half-maximal response.

The values that follow come from publication PMC4873338 (Neuron, 2016).

Where two headings read alike, the source gives them in different places.

For experiment [1], the system named is dopamine receptor(s) (DA-R) in s-LNv. The conditions noted are these: for Max Ampl DA ZT4 / Max Ampl DA ZT22 / EC50: Pdf > Epac50A.
For experiment [2] the test system is unchanged. To be noted: 2012, cited from earlier work.
Experiment [3] concerns D1-like dopamine receptors in l-LNv. Description: EPAC-FRET cAMP imaging of l-LNv response to dopamine. The experiment is classed as cell-based, Drosophila.
The subject of experiment [4] is Drosophila D1-like receptors expressed in hEK-293 cells. The conditions noted are these: hEK-293 cells expressing Drosophila D1-like receptor.
For experiment [5], the system named is D1-like dopamine receptors in l-LNv. To be noted: via one or more D1-like dopamine receptors, ref Shang et al. 2011, Duvall and Taghert, 2012; cited from earlier work.

`NCCc1ccc(O)c(O)c1` [DA, dopamine]: the “rhythm of responsiveness to DA” value in experiment [1] (3 × 10^−05 M DA, s-LNv, N=36 brains, 124 ROIs) is “peak phase in synchrony with the peak phase of PDF responsiveness, just after lights-on”. Moreover, the “Max Ampl DA ZT4” value in experiment [1] (s-LNv, LD 12:12, ZT4) is recorded as 15.3 ± 1.2; in experiment [1] (rala[CA], s-LNv, LD 12:12, ZT4), 14.0 ± 1.4; in experiment [1] (rala[DN], s-LNv, LD 12:12, ZT4), 13.6 ± 1.5; in experiment [3] (Pdf > Epac50A, LD 12:12, ZT4), 15.3 ± 1.3. In addition, the “Max Ampl DA ZT22” value in experiment [1] (s-LNv, LD 12:12, ZT22) was determined as 14.7 ± 2.8; in experiment [1] (rala[CA], s-LNv, LD 12:12, ZT22) it was 13.6 ± 2.0; in experiment [1] (rala[DN], s-LNv, LD 12:12, ZT22), 14.4 ± 1.9; in experiment [3] (Pdf > Epac50A, LD 12:12, ZT22), 16.0 ± 1.3. Also, the EC50 was 5.7 µM in experiment [1] (read-out: DA EC50 ZT4, rala[CA], s-LNv, LD 12:12, ZT4); 29 µM in experiment [1] (read-out: DA EC50 ZT4, rala[DN], s-LNv, LD 12:12, ZT4); 6.4 µM in experiment [1] (read-out: DA EC50 ZT22, rala[CA], s-LNv, LD 12:12, ZT22). The “DA responsiveness after RNAi targeting of AC13E and of ACX-A” value in experiment [1] (s-LNv, Suppl. Figure 2-top) was “partially reduced DA responsiveness”. For the same compound, the “attenuation of FRET response after peak” value in experiment [1] (sustained exposure to DA) is on record as “rapidly attenuated”. In addition, the “time to peak of FRET response” value in experiment [1] (sustained exposure to DA, relation: within) lay within 1 to 2 min. Also, in experiment [2] (s-LNv, ref Duvall and Taghert), the “DA responsiveness on over-expression of AC3” value is recorded as “no effect on DA responsiveness”. Moreover, the “cAMP increase in vivo” value in experiment [2] (small LNv, ref Shang et al. 2011, Duvall and Taghert) is listed as “generates cAMP increases in vivo”; in experiment [5], “generates cAMP increases in vivo”. Further, the “FRET responses to DA over the 24-hr period” value in experiment [3] (3 × 10^−05 M DA, N=33 brains, 178 ROIs, P=0.574) was “did not significantly vary over the 24-hr time period tested”. In addition, the β-ARR2-GFP translocation result in experiment [4] is recorded as “potently recruited β-ARR2-GFP translocation”.
